Data published in patent publication US10322154B2, “Sandalwood oil and its uses related to clostridium infections” (Santalis Pharmaceuticals, Inc., priority 2012, dated 2019).
“And” between values parts separate entries of the source, which are not always exact repeats. Equal entries are not always repeated.

System: Clostridium difficile
Experiment: C. difficile challenge in mice, qualitative fecal pellet analysis
Assay type: in vivo, C57BL/6 mouse
Set-up: key: +: positive (for the presence of C. difficile in the stool); −: negative
Settings: 50 mg/kg oral gavage Days 0-4, per animal
Method: Challenge Preparation: Challenge preparation was performed inside an anaerobe glove box in IW 305 in order to minimize oxygen exposure. A seed stock of the challenge organism (C. difficile) was thawed and added to the appropriate growth medium on Day −1. The organism was incubated anaerobically overnight (18-24 hrs) at 37° C. On the day of challenge (Day 0), the culture was diluted in DPBS to achieve a target concentration of 10^4 CFU/dose. Syringes with attached gavage needles were loaded with challenge material and placed on ice for transfer to the animal group.
Polymer Carrier: The polymer carrier used in these studies was a composition comprising polyethylene glycol 8000 (PEG8000) and hydroxypropyl methylcellulose acetate succinate (HPMCAS-LF). HPMCAS-LF was used to make the polymer insoluble at low pH. The formulation comprising a polymer carrier and sandalwood oil comprised about 50% PEG8000, about 41.67% sandalwood oil and about 8.33% HPMCAS-LF.
60 female C57BL\6 mice that weighed approximately 26-30 grams and were approximately 7-11 weeks old on Day 0 were used. The C57BL/6 mouse is susceptible to C. difficile and used extensively as a good animal model for the evaluation of antibacterial therapeutics. Treatments were administered via oral gavage and/or intraperitoneally in order to mimic treatment in humans. The challenge was administered via oral gavage as this is both an effective and minimally invasive route of administration that mimics the natural route of infection.
The body weights required for randomization were determined in Week −1 (the lowest body weights were excluded from randomization). After randomization, mice were assigned to one of six groups as indicated below in Table 6:
Treatment Procedure: All treatment doses were vortexed before administration to animals. On Days −6, −5 and −4, animals were administered the antibiotic cocktail via oral gavage at a volume of 0.3 mL. Treatments were administered ±1 hour from the initial day of dosing. On Day −1, animals were administered Clindamycin (10 mg/kg) via intraperitoneal (IP) at a volume of 0.4 mL. Post-challenge on Days 0-4, animals were administered the appropriate test article as listed in the table above via oral gavage at a volume of 0.3 mL. Treatments were administered ±1 hour from the initial day of dosing.
Challenge: On Day 0, mice were challenged via oral gavage with Clostridium difficile at a volume of 0.2 mL. The bacterial suspension was supplied (and maintained) on ice in pre filled syringes and inverted prior to administration to each group. […]
Microbiology Analysis: To isolate C. difficile, fecal pellets or swabs were solubilized in PBS and then cultured onto CDSA. […] Results were recorded as positive (for the presence of C. difficile in the stool) or negative.

For CN[C@H](CC(C)C)C(=O)N[C@H]1C(=O)N[C@@H](CC(N)=O)C(=O)N[C@H]2C(=O)N[C@H]3C(=O)N[C@H](C(=O)N[C@H](C(=O)O)c4cc(O)cc(O)c4-c4cc3ccc4O)[C@H](O)c3ccc(c(Cl)c3)Oc3cc2cc(c3O[C@@H]2O[C@H](CO)[C@@H](O)[C@H](O)[C@H]2O[C@H]2C[C@](C)(N)[C@H](O)[C@H](C)O2)Oc2ccc(cc2Cl)[C@H]1O [Vancomycin], the “Qualitative Fecal Pellet Analysis (presence of C. difficile in the stool)” value (“Qualitative Fecal Pellet Analysis” for short) (Day 1) was “−”, the “Qualitative Fecal Pellet Analysis” value (Day 2, 50 mg/kg) was “− (9×) and +” and the “Qualitative Fecal Pellet Analysis” value (Day 3) was “−”. For the same compound, the “Qualitative Fecal Pellet Analysis” value (Day 4) was “−”.
